# Patent publication US10941121B2 (AZIENDA OSPEDALIERA UNIVERSITARIA SENESE, priority 2015, dated 2021)
# Like-named read-outs stand apart in the source and are kept apart here.
# How the values were obtained:
# Lunet/HuH7 cells = assay: Cytotoxicity, MTT method in LUNET cells; format: cell-based; settings: MMT method in LUNET cells; read-out: CC50 (μM) non-infected cells
# Protocol: (§1) Toxicity (CC50) was analysed in the Lunet/HuH7 cells by the addition of 10 μL of MTT (3-(4,5-dimethylthiazol-2-yl)-2,5-diphenyltetrazolium bromide) per well. After 4 h of incubation at 37° C. in a humidified atmosphere with 5% CO2, the amount of formazan produced was quantified spectrophotometrically at 550/620 nm (C. Pannecouque et al, Nature protocol 2008; 3 (3): 427-434). […] These assays were done in duplicate.
# [1] = system: Hepatitis C Virus (HCV) replicon system; assay: HCV replicon system, luciferase method in LucUbiNeo-ET cells; settings: for EC50: read-out: EC50 (μM) HCV replicon system
# [2] = Cytotoxicity, MTT method in LUNET cells; format: cell-based; settings: human; MMT method in LUNET cells; read-out: CC50 (μM) non-infected cells
# Protocol: as §1
# [3] = Cytotoxicity, MTT method in HuH7.5 cells; format: cell-based; settings: human, non-infected, read-out: HCV CC50
# Protocol: After 4 h of incubation at 37° C. in a humidified atmosphere with 5% CO2, the amount of formazan produced was quantified spectrophotometrically at 550/620 nm (C. Pannecouque et al, Nature protocol 2008; 3 (3): 427-434). […] These assays were done in duplicate.
# [4] = Parallel Artificial Membrane Permeability Assay (PAMPA); format: in vitro ADME; settings: for PAMPA membrane retention (RM %): value in brackets in the PAMPA cell
# Protocol: Parallel Artificial Membrane Permeability Assay (PAMPA). Donor solution (0.5 mM) was prepared by diluting 1 mM dimethylsulfoxide (DMSO) compound stock solution using phosphate buffer (pH 7.4, 0.025 M). Filters were coated with 5 μL of a 1% (w/v) dodecane solution of phosphatidylcholine prepared from CHCl3 solution 10% w/v, for intestinal permeability. Donor solution (150 μL) was added to each well of the filter plate. To each well of the acceptor plate were added […] (50% DMSO in phosphate buffer). All compounds were tested in three different plates on different days. The sandwich was incubated for 5 h at room temperature under gentle shaking. After the incubation time, the plates were separated, and samples were taken from both receiver and donor sides and analyzed using LC with UV detection at 280 nm.
# LC analysis were performed with a Varian Prostar HPLC system (Varian Analytical Instruments, USA) equipped with a binary pump with a manual injection valve and model Prostar 325 UV-VIS Detector.
# Permeability (Papp) for PAMPA was calculated according to the following equation, obtained from Wohnsland and Faller and Sugano et al. equation with some modification in order to obtain permeability values in cm s^−1,
# where VA is the volume in the acceptor well, VD is the volume in the donor well (cm^3), A is the “effective area” of the membrane (cm^2), t is the incubation time (s) and r the ratio between drug concentration in the acceptor and equilibrium concentration of the drug in the total volume (VD+VA). Drug concentration is estimated by using the peak area integration.
# Membrane retentions (%) were calculated according to the following equation: […]
# where r is the ratio between drug concentration in the acceptor and equilibrium concentration, D, A, and Eq represented drug concentration in the donor, acceptor and equilibrium solution, respectively.
# Water Solubility Assay = format: physicochemical; settings: thermodynamic from solid
# Protocol: Water Solubility Assay. Each solid compound (1 mg) was added to 1 mL of water. The samples were shaked in a shaker bath at room temperature for 24-36 h. The suspensions were filtered through a 0.45 μm nylon filter (Acrodisc), and the solubilized compound determined by LC-MS-MS assay. For each compound the determination was performed in triplicate.
# For the quantification was used an LC-MS system consisted of a Varian apparatus (Varian Inc) including a vacuum solvent degassing unit, two pumps (212-LC), a Triple Quadrupole MSD (Mod. 320-LC) mass spectrometer with ES interface and Varian MS Workstation System Control Vers. 6.9 software. […] The flow rate was 0.2 mL min^−1 and injection volume was 5 μL. The instrument operated in positive mode and parameters were: detector 1850 V, drying gas pressure 25.0 psi, desolvation temperature 300.0° C., nebulizing gas 40.0 psi, needle 5000 V and shield 600 V. Nitrogen was used as nebulizer gas and drying gas. Collision induced dissociation was performed using Argon as the collision gas at a pressure of 1.8 mTorr in the collision cell.
# DDX3 Helicase [5] = molecular target: T1, DDX3 Helicase (Homo sapiens, UniProt O00571); assay: biochemical
# [6] = Cytotoxicity in Huh7 cells, nuclei counts; settings: human
# [7] = system: HCV Jc1 (genotype 2a virus); assay: HCV infectious cell culture system, NS5A immunostaining; settings: Hepatitis C virus, Huh7.5, read-out: HCV EC50
# DDX3 Helicase [8] = molecular target: T1, DDX3 Helicase; settings: read-out: ID50 (μM) against DDX3 Helicase; n.a. = compound not active
# in vitro = settings: hamster
# JEV strain (NJ2008) = assay: JEV infectious cell culture system, plaque formation assay in BHK-21 cells; settings: Japanese encephalitis virus, BHK-21, read-out: JEV EC50
# [9] = Cytotoxicity in PBMC, CellTiter 96 MTS viability assay; format: cell-based; settings: human, human primary PBMCs
# PRRSV = PRRSV infectious cell culture system, plaque formation assay in MARC-145 cells; format: cell-based; settings: Porcine reproductive and respiratory syndrome virus, MARC145; viral titre by plaque formation assay in MARC-145 cells
# Protocol: According to the requirement of different experiments, MARC-145 cells were either infected with PRRSV at MOIs of 0.1, 1 or 10, or mock infected with phosphate-buffered saline (PBS). After 1 h incubation at 37° C., unbounded viruses were removed by washing thrice with PBS and cultured in DMEM supplemented with 8% FBS at 37° C. for various lengths of time. For the autophagy induction and inhibition experiments, MARC-145 cells were pretreated with varying concentrations of rapamycin or 3-MA for 4 h before viral infection. MARC-145 cells were then infected with PRRSV at MOI of 1. After 1 h incubation at 37° C., unbounded viruses were removed by washing thrice with PBS and cultured in DMEM supplemented with 2% FBS containing varying concentrations of compound, 3-MA or the corresponding amount of dimethyl sulfoxide (DMSO, control) at 37° C. for 24 h.
# [10] = system: HIV-1 wild-type reference strain NL4-3; assay: HIV-1 phenotypic assay, MT-2 cells then TZM-bl cells, luciferase; format: cell-based; settings: Human immunodeficiency virus 1, NL43; first cycle in MT-2 cells, additional round in TZM-bl cells
# [11] = system: human liver microsome (HLM); assay: Microsomal Stability Assay; settings: human liver microsomes, 37 °C, 60 min, compound 50 μM; percentage of not metabolized compound
# [12] = Cytotoxicity in the JEV cell culture system; settings: hamster
# HIV (PBMC) = assay: HIV infectious cell culture system in PBMC, HIV-1 RNA in supernatant; settings: Human immunodeficiency virus 1, PBMC, 72 h, read-out: EC50 HIV (PBMC) 72 h
# HIV = settings: EI01D; read-out: EC50 inhibition of viral load of PBMCs infected with HIV; cited from earlier work
# DDX3 = DDX3 (Homo sapiens, UniProt O00571); settings: literature values; cited from earlier work
# HIV-1 (IIIB) = settings: read-out: EC50 replication of HIV-1 (IIIB) in MT4-cells; cited from earlier work
# MOLT-4 T-lymphocytic = settings: cited from earlier work
# [13] = experimental aqueous solubility, read-out: LogS (converted)
# [14] = room temperature, 24-36 h, read-out: Aq. Solub.
# [15] = DENV CC50, Huh7 cells, DENV experiment
# [16] = WNV CC50, Huh7 cells, WNV experiment
# T1 sequence (O00571 whole entry): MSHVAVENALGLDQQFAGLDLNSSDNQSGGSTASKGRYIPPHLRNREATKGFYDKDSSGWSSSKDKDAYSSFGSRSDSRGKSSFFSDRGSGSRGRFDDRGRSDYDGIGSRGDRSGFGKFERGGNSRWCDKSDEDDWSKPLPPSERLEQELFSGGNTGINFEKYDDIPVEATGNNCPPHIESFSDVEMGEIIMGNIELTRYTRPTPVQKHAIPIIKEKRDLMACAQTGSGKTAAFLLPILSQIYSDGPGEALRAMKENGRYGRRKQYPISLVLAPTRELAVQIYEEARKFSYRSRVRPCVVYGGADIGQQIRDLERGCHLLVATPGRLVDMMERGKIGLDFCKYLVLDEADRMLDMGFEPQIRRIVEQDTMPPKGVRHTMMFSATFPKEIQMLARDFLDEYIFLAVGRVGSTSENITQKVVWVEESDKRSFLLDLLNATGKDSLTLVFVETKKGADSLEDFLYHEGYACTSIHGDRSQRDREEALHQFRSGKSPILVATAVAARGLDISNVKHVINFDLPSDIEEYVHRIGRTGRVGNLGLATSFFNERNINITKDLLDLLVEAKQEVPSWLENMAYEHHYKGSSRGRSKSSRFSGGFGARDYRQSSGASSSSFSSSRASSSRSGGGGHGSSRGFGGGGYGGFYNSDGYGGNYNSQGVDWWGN
# Chain of DDX3 (O00571 whole entry): as above
compound,measurement,setting,value
CCCCCCc1cn(-c2ccc(NC(=O)Nc3ccccc3C(F)(F)F)cc2)nn1 [Compound 8d],CC50,Lunet/HuH7 cells,290 µM
same,EC50,"[1]; luciferase method in LucUbiNeo-ET cells, 2 days",0.67 µM
"Cc1ccccc1NC(=O)Nc1ccc(-n2cc(CCC(C)C)nn2)cc1 [Compound 20b, 1-(4-(4-isopentyl-1H-1,2,3-triazol-1-yl)phenyl)-3-o-tolylurea]",CC50,[2],189 µM
same,CC50,[3],209 µM
same,"Papp at 5 h, 0.5 mM","[4]; PAMPA, phosphatidylcholine in dodecane, pH 7.4, 5 h, room temperature, read-out: PAMPA Papp *10^−6 (cm/s) GI",1.93 ×10⁻⁶ cm/s
same,PAMPA membrane retention (RM %),[4],26.7%
same,solubility,Water Solubility Assay; [13],< 0.00251 µM
same,solubility,Water Solubility Assay; [14],< 0.001 µg/mL
same,IC50,DDX3 Helicase [5],0.5 µM
same,CC50 at 48 h,[6]; [15],40.4 µM
same,CC50 at 48 h,[6]; [16],62.3 µM
same,EC50,[7],30 µM
same,"activity against HCV, in words",[1],best activity
same,EC50,"[1]; Hepatitis C virus, 48 h",0.8 µM
"CCCCc1cn(-c2ccc(NC(=O)Nc3ccccc3C(F)(F)F)cc2)nn1 [Compound 22a, 1-(4-(4-butyl-1H-1,2,3-triazol-1-yl)phenyl)-3-(2-(trifluoromethyl)phenyl)urea]",CC50,[2],200 µM
same,CC50,[3],94.4 µM
same,PAMPA Papp *10^−6 (cm/s) GI,"[4]; phosphatidylcholine in dodecane, pH 7.4, 5 h, room temperature",7.47 *10^−6 cm/s
same,PAMPA membrane retention (RM %),[4],23.9%
same,solubility,Water Solubility Assay; [13],0.0372 µM
same,solubility,Water Solubility Assay; [14],0.107 µg/mL
same,IC50,DDX3 Helicase [5],0.3 µM
same,CC50 at 48 h,[6]; [15],178 µM
same,CC50 at 48 h,[6]; [16],145 µM
same,EC50,[7],0.6 µM
same,"activity against HCV, in words",[1],best activity
same,EC50,"[1]; Hepatitis C virus, 48 h",0.3 µM
"CCOP(=O)(OCC)OCCc1cn(-c2ccc(NC(=O)Nc3ccccc3C)cc2)nn1 [Compound 36, diethyl (2-(1-(4-(3-(o-tolyl)ureido)phenyl)-1H-1,2,3-triazol-4-yl)ethyl) phosphate]",CC50,[2],> 150 µM
same,IC50,DDX3 Helicase [8],0.9 µM
same,CC50,in vitro,> 50 µM
same,EC50,"[1]; Hepatitis C virus, 48 h",75 µM
same,EC50,JEV strain (NJ2008),21.1 µM
"CCCCc1cn(-c2cccc(S(=O)(=O)Nc3ccccc3C(F)(F)F)c2)nn1 [Compound 64d, 3-(4-butyl-1H-1,2,3-triazol-1-yl)-N-(2-(trifluoromethyl)phenyl)benzenesulfonamide]",CC50 at 24 h,[9]; 24 h,2130 µM
same,CC50 at 48 h,[9]; 48 h,332 µM
same,CC50 at 72 h,[9],198 µM
same,EC50,PRRSV,30 µM
same,EC50,[10],12.7 µM
same,IC50,DDX3 Helicase [8],0.4 µM
same,Metabolic stability (Sability %),[11],99%
same,CC50,[12],> 50 µM
same,EC50,HIV (PBMC),31 µM
same,EC50,JEV strain (NJ2008),6.7 µM
"Cc1ccccc1NC(=O)Nc1cccc([N+](=O)[O-])c1 [EI01D, reference compound]",CC50,[2],86 µM
same,CC50 at 72 h,[9],100 µM
same,IC50,DDX3 Helicase [8],1 µM
same,EC50,HIV,10 µM
same,CC50,[12],> 50 µM
same,"activity against HCV, in words",[1],completely inactive
same,EC50,"[1]; Hepatitis C virus, 48 h",> 86 µM
same,EC50,HIV (PBMC),10 µM
same,EC50,JEV strain (NJ2008),10 µM
O=C(CN1C(=O)/C(=C/c2cccc(Br)c2)SC1=S)Nc1ccccc1O [FE15],Ki,DDX3,5.4 µM
same,EC50,HIV-1 (IIIB),86.7 µM
same,CC50,MOLT-4 T-lymphocytic,> 200 µM
